Laboratory results reported in patent US12605407B2, “Methods to induce terminal differentiation in stem cells by interfering with DNA replication, methods of inducing pancreatic differentiation, and differentiated cells obtained thereof” (priority 2018, dated 2026).

Experiments:
[1] = tested on: stem cell derived beta cells; experiment: Stability of beta cell identity in long-term culture after removal of compound at day 27; assay type: cell-based, human
Procedure: (§1) The beta cell clusters were dissociated using TrypLE™ Express into single cells. Cells were fixed with 4% PFA for 10 min and followed by permeabilization at −20° C. with cold methanol for 10 min. Primary antibodies were added at a dilution of 1:100 in autoMACs Rinsing Solution (Cat. No. 130-091-222, Miltenyi Biotec) containing 0.5% BSA at 4° C. for 1 hour. Secondary antibodies were added at a dilution of 1:500 at room temperature for 1 hour. The cells were filtered with BD Falcon 12×75 mm tube with cell strainer cap (Cat. No. 352235, BD) and subsequently analyzed by flow cytometer. Data were analyzed using Flowjo software. Negative controls were performed by only adding secondary antibodies.
With APH, a high proportion of cells in the islet-like clusters were positive for C-peptide and NKX6.1, a transcription factor for maintaining the beta cell identity and functional maturation (Schaffer et al., 2013). […] Beta cells were cultured for additional 7 days until about day 34 and 30 days until about day 60 upon removal of these compounds at day 27. […] In contrast, in APH treated cells, there was no decrease in C-peptide or NKX6.1 on day 34 (FIG. 5A). […] After further culturing of the cells for extra 30 days, very few of cells in control group remained GFP expression and were positive for C-peptide.
The ability of other DNA replication inhibitors to stabilize the beta cell identity was investigated. The expressions of GFP were maintained after releasing cells from these inhibitors for 7 days until day 34. With additional 30 days of culture, the expressions of GFP were reduced in all conditions at certain levels, but the cells treated with Cis and Eto expressed higher GFP than the cells treated with APH compared to the other conditions (FIG. 5E, FIG. 5F).

pancreatic progenitors = experiment: Beta cell differentiation from human pluripotent stem cells, flow cytometry of C-peptide and NKX6.1 positive cells; assay type: cell-based
Procedure: Beta cells differentiated from human pluripotent stem cell lines as described in Example 2 (Sui et al., 2018b). Indicated compounds that function as cell cycle inhibitors were added individually from day 15 to day 27 with concentration listed below:
The DNA replication inhibitors used in this study: 0.1 μM, 0.5 μM and 1 μM Aphidicolin (A0781, Sigma-Aldrich); 2.5 μM Cisplatin (232120, EMD Millipore); 100 μM Ciprofloxacin (S2027, Selleck Chemicals); 10 μM Pyridostatin (S7444, Selleck Chemicals); 10 μM E2F Inhibitor (324461, EMD Millipore); 0.05 μM A485 (6387, Tocris); 2 μM RL5a (SML2187, Sigma-Aldrich); and 2 μM Etoposide (E55500, Research Products International). Indicated compounds were added individually from day 15 to day 27 with indicated concentration.
as §1
Aphidicolin (APH), a DNA polymerase inhibitor, was used to inhibit DNA replication (Koundrioukoff et al., 2013). […] The insulin expressing cells were evenly distributed in the islet-like clusters with high percentage indicated by the expression of GFP, whereas some parts of the clusters in control remained GFP negative (FIG. 1D).

NSG mice = experiment: Graft growth by luciferase reporter in vivo imaging, cyst formation and graft sections
Procedure: 8-10 weeks old male immuno-compromised mice (NOD.Cg-Prkdcscid Il2rgtm1Wj1/SzJ (NSG) from Jackson laboratories, Cat. No. 005557) were used for transplantation. For intra leg muscle transplantation, 1-2 million cells were collected and settled in tube with 50 μl Matrigel. All animal protocols were approved by the Institutional Animal Care and Use Committee in Columbia University.
A major obstacle for the therapeutic translation of stem cell products is the formation of growths, in the form of a teratoma or of a cyst. To determine growth potential of the grafted cells, growth was evaluated by monitoring the graft with a luciferase reporter using in vivo imaging. Mice were transplanted with 1-2 million APH treated cells or untreated cells. After 2 weeks of transplantation, the graft size of APH mice was small, while controls were modestly larger (FIG. 8A). […] The different growth trend of grafted cells between control and APH treated cells was evident in the bioluminescence intensity (FIG. 8C). At 22 weeks of engraftment, the size of graft in APH group was an average of 2.6-fold larger than that of 2 weeks compare to the control group which had 53.1-fold increase (FIG. 8D). Graft growth occurred in controls even in cultures with very high differentiation efficiency (greater than 60%). The increase of graft size was slower in the 3 mice transplanted with control cells with high differentiation efficiency but cystic structure still formed in three out of the three (3/3) mice (FIG. 8C, FIG. 8E).
The grafts were isolated from mice and frozen sectioned for examination. […] In control mice, the graft developed several large cystic structures and contained fewer C-peptide positive cells (FIG. 8G).

[2] = tested on: stem cell derived beta cells; experiment: Gene expression by quantitative realtime PCR in sorted insulin-GFP positive cells; assay type: cell-based, human
Source text: Total RNA was extracted from the cells at beta cell stage (d27) from different conditions using a RNeasy Mini Kit (Cat. No. 74106, QIAGEN). The total RNA was reverse transcripted into cDNA using iScript™ Reverse Transcription Supermix (Cat. No. 170-8841, Bio-Rad), and the cDNA were sequentially used as template with SsoFast™ EvaGreen® Supermix (Cat. No. 172-5202, Bio-Rad) for quantitative realtime PCR.
By the end of day 27, 30% of control cells were in cell cycle through G1 to M phase indicated by the expression of KI67 (a proliferation marker expressed in the cells within cell cycle) and amount of DNA content (FIG. 3A). […] The cell cycle gene expression in insulin expressing cells was also examined.
Insulin positive cells were isolated based on GFP expression and the expressions of genes related to the maturation of beta cells including PDX1, NKX6.1, MAFA and insulin were evaluated (FIG. 6A). […] In addition, the C-peptide secretion was increased 2-6-fold, with an average of 3-fold, in response to high levels of glucose (FIG. 6D).

[3] = APH added d15-d20, d20-d27 or d15-d27, read at day 27, versus control
[4] = isolated grafts, frozen sections
[5] = GFP positive cells from APH treated clusters versus GFP positive cells in control clusters

C[C@@]1(CO)[C@H](O)CC[C@@]2(C)[C@H]1CC[C@H]1C[C@@H]3C[C@@]12CC[C@]3(O)CO [APH, Aphidicolin]
percentage of C-peptide positive cells, and C-peptide and NKX6.1 double positive cells, relative to day 27 before releasing ([1]; after 7 days of releasing cells from APH (day 34)): comparable
C-peptide or NKX6.1 ([1]; day 34, APH removed on day 27): no decrease
number of GFP and C-peptide positive cells compared to day 27 before removal ([1]; day 60): decreased
percentage of C-peptide positive cells ([1]; day 60, APH treatment days 15-27): about 34%
variability of beta cell differentiation (pancreatic progenitors): reduced
percentage of c-peptide and NKX6.1 positive cells, comparison of concentrations (pancreatic progenitors; 1 μM, d15-d27, compared with 0.1 μM and 0.5 μM): highest percentage
proportion of C-peptide and NKX6.1 dual positive cells (pancreatic progenitors; [3]): increased
proportion of C-peptide positive cells (pancreatic progenitors; [3]): increased
differentiation toward C-peptide and NKX6.1 positive cells, comparison of treatment windows (pancreatic progenitors; APH added from day 15 to day 27): most effective
C-peptide positive cells in cultures (pancreatic progenitors; all n=12 independent differentiation experiments): more than 50%
effectiveness to induce differentiation of pancreatic progenitors to C-peptide positive cells, comparison within panel (pancreatic progenitors; day 27): most effective
graft size (NSG mice; 2 weeks of transplantation, 1-2 million APH treated cells): small
size of graft relative to 2 weeks, average (bioluminescence) (NSG mice; 22 weeks of engraftment): 2.6 fold
graft size relative to graft at 2 weeks (NSG mice; eleven weeks later (13 weeks post transplantation)): remained the similar size
cysts in mice grafted with APH treated cells (NSG mice; four out of the four (4/4) mice): No cysts
MAFA staining of insulin expressing beta cells in graft (NSG mice; [4]): positive for MAFA
graft composition (NSG mice; [4]): islet like structures
expression of MAFA at transcription level [2, 5]: significantly upregulated
expression of NKX6.1 at transcription level [2, 5]: significantly upregulated
expression of PDX1 at transcription level [2, 5]: significantly upregulated
expression of insulin at transcription level [2, 5]: significantly upregulated
expression of CDK4 ([2]; insulin positive cells): downregulated
expression of Cyclin D1 ([2]; insulin positive cells): downregulated
expression of P21 ([2]; insulin positive cells): upregulated
